Assays:
morningglory = assay: Test A pre-/postemergence greenhouse test; assay type: in vivo, Ipomoea spp.; settings: for Plant response rating, Morningglory: 0 to 100 scale where 0 is no effect and 100 is complete control; for Morningglory plant response rating: 0 to 100 scale
Text: (§1) Seeds of barnyardgrass (Echinochloa crus-galli), crabgrass (Digitaria sanguinalis), giant foxtail (Setaria faberi), morningglory (Ipomoea spp.), redroot pigweed (Amaranthus retroflexus), velvetleaf (Abutilon theophrasti), wheat (Triticum aestivum), and corn (Zea mays) were planted into a blend of loam soil and sand and treated preemergence with a directed soil spray using test compounds formulated in a non-phytotoxic solvent mixture which included a surfactant. At the same time these species were also treated with postemergence applications of test compounds formulated in the same manner. Plants ranged in height from two to ten cm and were in the one- to two-leaf stage for the postemergence treatment. Treated plants and untreated controls were maintained in a greenhouse for approximately ten days, after which time all treated plants were compared to untreated controls and visually evaluated for injury. […] A dash (-) response means no test results.

crabgrass = assay: Test A pre-/postemergence greenhouse test; assay type: in vivo, Digitaria sanguinalis; settings: for Plant response rating, Crabgrass, Large: 0 to 100 scale where 0 is no effect and 100 is complete control; for Crabgrass, Large plant response rating: 0 to 100 scale
Text: as §1

velvetleaf = assay: Test A pre-/postemergence greenhouse test; assay type: in vivo, Abutilon theophrasti; settings: for Plant response rating, Velvetleaf: 0 to 100 scale where 0 is no effect and 100 is complete control; for Velvetleaf plant response rating: 0 to 100 scale
Text: as §1

umbrella sedge = assay: Test C flooded paddy test; assay type: in vivo, Cyperus difformis; settings: Flood
Text: (§2) At time of treatment, test pots were flooded to 3 cm above the soil surface, treated by application of test compounds directly to the paddy water, and then maintained at that water depth for the duration of the test. Treated plants and controls were maintained in a greenhouse for 13 to 15 days, after which time all species were compared to controls and visually evaluated. […] A dash (-) response means no test result.

barnyardgrass [1] = assay: Test C flooded paddy test; assay type: in vivo, Echinochloa crus-galli; settings: Flood
Text: as §2

barnyardgrass [2] = assay: Test A pre-/postemergence greenhouse test; assay type: in vivo, Echinochloa crus-galli; settings: for Plant response rating, Barnyardgrass: 0 to 100 scale where 0 is no effect and 100 is complete control; for Barnyardgrass plant response rating: 0 to 100 scale
Text: as §1

duck salad = assay: Test C flooded paddy test; assay type: in vivo, Heteranthera limosa; settings: Flood
Text: as §2

redroot pigweed = assay: Test A pre-/postemergence greenhouse test; assay type: in vivo, Amaranthus retroflexus; settings: for Plant response rating, Pigweed: 0 to 100 scale where 0 is no effect and 100 is complete control; for Pigweed plant response rating: 0 to 100 scale
Text: as §1

rice = assay: Test C flooded paddy test; assay type: in vivo, Oryza sativa; settings: Flood
Text: as §2

corn = assay: Test A pre-/postemergence greenhouse test; assay type: in vivo, Zea mays; settings: for Plant response rating, Corn: 0 to 100 scale where 0 is no effect and 100 is complete control; for Corn plant response rating: 0 to 100 scale
Text: as §1

wheat = assay: Test A pre-/postemergence greenhouse test; assay type: in vivo, Triticum aestivum; settings: for Plant response rating, Wheat: 0 to 100 scale where 0 is no effect and 100 is complete control; for Wheat plant response rating: 0 to 100 scale
Text: as §1

giant foxtail = assay: Test A pre-/postemergence greenhouse test; assay type: in vivo, Setaria faberi; settings: for Plant response rating, Foxtail, Giant: 0 to 100 scale where 0 is no effect and 100 is complete control; for Foxtail, Giant plant response rating: 0 to 100 scale
Text: as §1

[3] = Postemergence, 500 g ai/ha, 0 is no effect, 100 is complete control
[4] = Preemergence, 125 g ai/ha, 0 no effect, 100 complete control
[5] = Preemergence, 500 g ai/ha, 0 no effect, 100 complete control
[6] = 62 g ai/ha, scale 0 to 100 (0 no effect, 100 complete control)
[7] = 250 g ai/ha, scale 0 to 100, 0 no effect, 100 complete control, 13 to 15 days
[8] = Postemergence, 125 g ai/ha, 0 is no effect, 100 is complete control
[9] = 31 g ai/ha, scale 0 to 100 (0 no effect, 100 complete control)
[10] = 62 g ai/ha, scale 0 to 100, 0 no effect, 100 complete control, 13 to 15 days
[11] = 125 g ai/ha, scale 0 to 100, 0 no effect, 100 complete control, 13 to 15 days
[12] = 250 g ai/ha, scale 0 to 100 (0 no effect, 100 complete control)

Cn1nc(C(F)(F)F)c(CS(=O)(=O)c2ccc(Cl)c[n+]2[O-])c1OCC(F)F [Compound 93]
80: Crabgrass, Large plant response rating (crabgrass; [3]) | Barnyardgrass plant response rating (barnyardgrass [2]; [3]) | Foxtail, Giant plant response rating (giant foxtail; [3])
50: Plant response rating, Crabgrass, Large (crabgrass; Postemergence, 125 g ai/ha) | Velvetleaf plant response rating (velvetleaf; [3]) | Plant response rating, Ducksalad (duck salad; [7])
90: Plant response rating, Crabgrass, Large (crabgrass; Preemergence, 500 g ai/ha) | Plant response rating, Barnyardgrass (barnyardgrass [2]; Preemergence, 500 g ai/ha) | Plant response rating, Foxtail, Giant (giant foxtail; Preemergence, 500 g ai/ha)
20: Plant response rating, Barnyardgrass (barnyardgrass [1]; [7]) | Plant response rating, Wheat (wheat; Postemergence, 125 g ai/ha)
0: Morningglory plant response rating (morningglory; [4]) | Plant response rating, Morningglory (morningglory; Preemergence, 500 g ai/ha) | Plant response rating, Velvetleaf (velvetleaf; Postemergence, 125 g ai/ha) | Velvetleaf plant response rating (velvetleaf; [4]) | Plant response rating, Sedge, Umbrella (umbrella sedge; [6]) | Plant response rating, Barnyardgrass (barnyardgrass [1]; [6]) | Plant response rating, Ducksalad (duck salad; [6]) | Plant response rating, Rice (rice; [6]) | Corn plant response rating (corn; [4]) | Plant response rating, Corn (corn; Preemergence, 500 g ai/ha)
40: Morningglory plant response rating (morningglory; [3]) | Velvetleaf plant response rating (velvetleaf; [5]) | Plant response rating, Sedge, Umbrella (umbrella sedge; [7]) | Wheat plant response rating (wheat; [3])
60: Crabgrass, Large plant response rating (crabgrass; [4]) | Barnyardgrass plant response rating (barnyardgrass [2]; [4]) | Plant response rating, Pigweed (redroot pigweed; Postemergence, 125 g ai/ha) | Plant response rating, Foxtail, Giant (giant foxtail; Postemergence, 125 g ai/ha) | Foxtail, Giant plant response rating (giant foxtail; [4])
100: Plant response rating, Pigweed (redroot pigweed; Preemergence, 500 g ai/ha)
70: Plant response rating, Barnyardgrass (barnyardgrass [2]; Postemergence, 125 g ai/ha) | Pigweed plant response rating (redroot pigweed; [3]) | Pigweed plant response rating (redroot pigweed; [4])
30: Plant response rating, Morningglory (morningglory; Postemergence, 125 g ai/ha) | Plant response rating, Rice (rice; [7]) | Plant response rating, Corn (corn; Postemergence, 125 g ai/ha) | Corn plant response rating (corn; [3]) | Wheat plant response rating (wheat; [4]) | Wheat plant response rating (wheat; [5])

Cc1cc[n+]([O-])c([S+]([O-])C(C)c2c(C(F)(F)F)nn(C)c2Cl)c1 (mixture of isomers) [Compound 15]
80: Plant response rating, Ducksalad (duck salad; [10]) | Plant response rating, Ducksalad (duck salad; [11])
20: Plant response rating, Crabgrass, Large (crabgrass; Preemergence, 500 g ai/ha) | Plant response rating, Barnyardgrass (barnyardgrass [1]; [9]) | Plant response rating, Barnyardgrass (barnyardgrass [1]; [10]) | Plant response rating, Barnyardgrass (barnyardgrass [1]; [11]) | Plant response rating, Barnyardgrass (barnyardgrass [1]; [12]) | Plant response rating, Ducksalad (duck salad; [9])
85: Plant response rating, Sedge, Umbrella (umbrella sedge; [9]) | Plant response rating, Sedge, Umbrella (umbrella sedge; [10]) | Plant response rating, Sedge, Umbrella (umbrella sedge; [11])
0: Morningglory plant response rating (morningglory; [8]) | Morningglory plant response rating (morningglory; [3]) | Morningglory plant response rating (morningglory; [4]) | Plant response rating, Morningglory (morningglory; Preemergence, 500 g ai/ha) | Crabgrass, Large plant response rating (crabgrass; [8]) | Crabgrass, Large plant response rating (crabgrass; [3]) | Crabgrass, Large plant response rating (crabgrass; [4]) | Velvetleaf plant response rating (velvetleaf; [8]) | Velvetleaf plant response rating (velvetleaf; [3]) | Velvetleaf plant response rating (velvetleaf; [4]) | Plant response rating, Velvetleaf (velvetleaf; Preemergence, 500 g ai/ha) | Barnyardgrass plant response rating (barnyardgrass [2]; [8]) | Barnyardgrass plant response rating (barnyardgrass [2]; [3]) | Barnyardgrass plant response rating (barnyardgrass [2]; [4]) | Plant response rating, Barnyardgrass (barnyardgrass [2]; Preemergence, 500 g ai/ha) | Pigweed plant response rating (redroot pigweed; [8]) | Pigweed plant response rating (redroot pigweed; [3]) | Plant response rating, Pigweed (redroot pigweed; Preemergence, 500 g ai/ha) | Plant response rating, Rice (rice; [9]) | Plant response rating, Rice (rice; [10]) | Plant response rating, Rice (rice; [11]) | Plant response rating, Rice (rice; [12]) | Corn plant response rating (corn; [8]) | Corn plant response rating (corn; [3]) | Corn plant response rating (corn; [4]) | Plant response rating, Corn (corn; Preemergence, 500 g ai/ha) | Wheat plant response rating (wheat; [8]) | Wheat plant response rating (wheat; [3]) | Wheat plant response rating (wheat; [4]) | Plant response rating, Wheat (wheat; Preemergence, 500 g ai/ha) | Foxtail, Giant plant response rating (giant foxtail; [8]) | Foxtail, Giant plant response rating (giant foxtail; [3]) | Foxtail, Giant plant response rating (giant foxtail; [4]) | Plant response rating, Foxtail, Giant (giant foxtail; Preemergence, 500 g ai/ha)

Cn1nc(C(F)(F)F)c(CS(=O)(=O)c2cc(C(C)(C)C)cc[n+]2[O-])c1OCC(F)(F)F [Compound 72]
30: Wheat plant response rating (wheat; [4])
60: Plant response rating, Morningglory (morningglory; Preemergence, 500 g ai/ha) | Crabgrass, Large plant response rating (crabgrass; [3]) | Barnyardgrass plant response rating (barnyardgrass [2]; [3]) | Pigweed plant response rating (redroot pigweed; [3]) | Pigweed plant response rating (redroot pigweed; [4]) | Wheat plant response rating (wheat; [3]) | Foxtail, Giant plant response rating (giant foxtail; [3])
70: Plant response rating, Sedge, Umbrella (umbrella sedge; [7]) | Plant response rating, Wheat (wheat; Preemergence, 500 g ai/ha)
10: Plant response rating, Foxtail, Giant (giant foxtail; Postemergence, 125 g ai/ha)
80: Crabgrass, Large plant response rating (crabgrass; [4])
75: Plant response rating, Ducksalad (duck salad; [7])
100: Plant response rating, Crabgrass, Large (crabgrass; Preemergence, 500 g ai/ha) | Plant response rating, Barnyardgrass (barnyardgrass [2]; Preemergence, 500 g ai/ha) | Foxtail, Giant plant response rating (giant foxtail; [4]) | Plant response rating, Foxtail, Giant (giant foxtail; Preemergence, 500 g ai/ha)
20: Plant response rating, Pigweed (redroot pigweed; Postemergence, 125 g ai/ha)
40: Morningglory plant response rating (morningglory; [3]) | Velvetleaf plant response rating (velvetleaf; [3]) | Barnyardgrass plant response rating (barnyardgrass [2]; [4])
0: Plant response rating, Morningglory (morningglory; Postemergence, 125 g ai/ha) | Morningglory plant response rating (morningglory; [4]) | Plant response rating, Crabgrass, Large (crabgrass; Postemergence, 125 g ai/ha) | Plant response rating, Velvetleaf (velvetleaf; Postemergence, 125 g ai/ha) | Velvetleaf plant response rating (velvetleaf; [4]) | Plant response rating, Sedge, Umbrella (umbrella sedge; [6]) | Plant response rating, Barnyardgrass (barnyardgrass [1]; [6]) | Plant response rating, Barnyardgrass (barnyardgrass [1]; [7]) | Plant response rating, Barnyardgrass (barnyardgrass [2]; Postemergence, 125 g ai/ha) | Plant response rating, Ducksalad (duck salad; [6]) | Plant response rating, Rice (rice; [6]) | Plant response rating, Rice (rice; [7]) | Plant response rating, Corn (corn; Postemergence, 125 g ai/ha) | Corn plant response rating (corn; [3]) | Corn plant response rating (corn; [4]) | Plant response rating, Wheat (wheat; Postemergence, 125 g ai/ha)
90: Plant response rating, Velvetleaf (velvetleaf; Preemergence, 500 g ai/ha) | Plant response rating, Pigweed (redroot pigweed; Preemergence, 500 g ai/ha)
50: Plant response rating, Corn (corn; Preemergence, 500 g ai/ha)

Cc1cc[n+]([O-])c([S+]([O-])Cc2c(C(F)(F)F)nn(C)c2OCC(F)(F)C(F)(F)F)c1 (stereo not drawn) [Compound 90]
100: Plant response rating, Barnyardgrass (barnyardgrass [2]; Preemergence, 500 g ai/ha) | Plant response rating, Foxtail, Giant (giant foxtail; Preemergence, 500 g ai/ha)
60: Plant response rating, Morningglory (morningglory; Preemergence, 500 g ai/ha) | Barnyardgrass plant response rating (barnyardgrass [2]; [3])
90: Morningglory plant response rating (morningglory; [3]) | Plant response rating, Crabgrass, Large (crabgrass; Preemergence, 500 g ai/ha)
10: Plant response rating, Pigweed (redroot pigweed; Postemergence, 125 g ai/ha)
30: Pigweed plant response rating (redroot pigweed; [3]) | Plant response rating, Corn (corn; Postemergence, 125 g ai/ha)
50: Corn plant response rating (corn; [3]) | Plant response rating, Corn (corn; Preemergence, 500 g ai/ha) | Plant response rating, Foxtail, Giant (giant foxtail; Postemergence, 125 g ai/ha)
0: Morningglory plant response rating (morningglory; [4]) | Plant response rating, Velvetleaf (velvetleaf; Postemergence, 125 g ai/ha) | Velvetleaf plant response rating (velvetleaf; [4]) | Plant response rating, Sedge, Umbrella (umbrella sedge; [6]) | Plant response rating, Barnyardgrass (barnyardgrass [1]; [6]) | Plant response rating, Barnyardgrass (barnyardgrass [1]; [7]) | Plant response rating, Barnyardgrass (barnyardgrass [2]; Postemergence, 125 g ai/ha) | Barnyardgrass plant response rating (barnyardgrass [2]; [4]) | Plant response rating, Ducksalad (duck salad; [6]) | Pigweed plant response rating (redroot pigweed; [4]) | Plant response rating, Rice (rice; [6]) | Plant response rating, Rice (rice; [7]) | Corn plant response rating (corn; [4]) | Plant response rating, Wheat (wheat; Postemergence, 125 g ai/ha) | Wheat plant response rating (wheat; [4])
20: Plant response rating, Morningglory (morningglory; Postemergence, 125 g ai/ha) | Plant response rating, Crabgrass, Large (crabgrass; Postemergence, 125 g ai/ha) | Plant response rating, Ducksalad (duck salad; [7])
40: Crabgrass, Large plant response rating (crabgrass; [4]) | Plant response rating, Pigweed (redroot pigweed; Preemergence, 500 g ai/ha)
80: Crabgrass, Large plant response rating (crabgrass; [3]) | Velvetleaf plant response rating (velvetleaf; [3]) | Wheat plant response rating (wheat; [5]) | Foxtail, Giant plant response rating (giant foxtail; [3])
70: Velvetleaf plant response rating (velvetleaf; [5]) | Plant response rating, Sedge, Umbrella (umbrella sedge; [7]) | Wheat plant response rating (wheat; [3]) | Foxtail, Giant plant response rating (giant foxtail; [4])

— patent publication US20100298141A1, “SUBSTITUTED PYRIDINE N-OXIDE HERBICIDES” (E. I. DU PONT DE NEMOURS AND COMPANY, priority 2007, published 2010)
